The structures appear in SMILES notation.

Data set [1] concerns the target T1, Prostaglandin G/H synthase 1 (Homo sapiens, UniProt P23219). Briefly: Inhibition of human platelets COX1 assessed as PGE2 production using arachidonic acid as substrate preincubated for 15 mins measured after 15 mins by EIA.
Data set [2] addresses T2, Prostaglandin G/H synthase 2 (Homo sapiens, UniProt P35354).
T2 sequence (P35354 whole entry): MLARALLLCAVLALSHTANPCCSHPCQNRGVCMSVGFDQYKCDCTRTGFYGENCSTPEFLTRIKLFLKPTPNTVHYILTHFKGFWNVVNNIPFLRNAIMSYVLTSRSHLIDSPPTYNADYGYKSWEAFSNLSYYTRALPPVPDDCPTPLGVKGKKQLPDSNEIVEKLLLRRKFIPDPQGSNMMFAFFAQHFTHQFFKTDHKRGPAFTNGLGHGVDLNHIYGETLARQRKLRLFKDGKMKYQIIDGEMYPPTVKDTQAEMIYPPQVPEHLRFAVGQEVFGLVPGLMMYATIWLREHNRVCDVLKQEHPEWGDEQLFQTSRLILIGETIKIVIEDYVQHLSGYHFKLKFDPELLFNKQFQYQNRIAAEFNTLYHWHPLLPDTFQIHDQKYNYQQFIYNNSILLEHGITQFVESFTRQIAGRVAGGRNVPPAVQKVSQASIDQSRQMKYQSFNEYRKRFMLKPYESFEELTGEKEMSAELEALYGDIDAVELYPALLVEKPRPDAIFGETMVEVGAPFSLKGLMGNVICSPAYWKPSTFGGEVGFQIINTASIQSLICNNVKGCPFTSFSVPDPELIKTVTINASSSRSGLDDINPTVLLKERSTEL
Put plainly: Inhibition of human recombinant COX2 expressed in Sf21 cells assessed as PGE2 production using arachidonic acid as substrate preincubated for 15 mins measured after 5 mins by EIA.

In data set [3] the target is T1, Prostaglandin G/H synthase 1. Put plainly: Inhibition of human platelets COX1 assessed as PGE2 production using arachidonic acid as substrate at 10 uM preincubated for 15 mins measured after 15 mins by EIA.
For data set [4], the target named is T3, hERG (KCNH2) (Homo sapiens, UniProt Q12809). Briefly: Inhibition of human ERG expressed in HEK293 cells assessed as inhibition of tail current at holding potential of -70 mV at 1 uM after 10 mins by whole-cell patch clamp method relative to control. It counts as cell-based. The conditions noted are these: HEK293 cells that express hERG.
The target in data set [5] is T3, hERG (KCNH2). Put plainly: Inhibition of human ERG expressed in HEK293 cells assessed as inhibition of tail current at holding potential of -70 mV at 31.6 uM after 10 mins by whole-cell patch clamp method. The conditions noted are these: HEK293 cells that express hERG. Type of data set: cell-based.
For data set [6], the target named is T3, hERG (KCNH2). Put plainly: Inhibition of human ERG expressed in HEK293 cells assessed as inhibition of tail current at holding potential of -70 mV at 3.16 uM after 10 mins by whole-cell patch clamp method. It counts as cell-based. The conditions noted are these: HEK293 cells that express hERG.
For data set [7], the target named is T3, hERG (KCNH2). Briefly: Inhibition of human ERG expressed in HEK293 cells assessed as inhibition of tail current at holding potential of -70 mV at 10 uM after 10 mins by whole-cell patch clamp method. Type of data set: cell-based. The conditions noted are these: HEK293 cells that express hERG.
For data set [8], the target named is T3, hERG (KCNH2). Put plainly: Inhibition of human ERG expressed in HEK293 cells assessed as inhibition of tail current at holding potential of -70 mV at 100 uM after 10 mins by whole-cell patch clamp method. Particulars: HEK293 cells that express hERG. Type of data set: cell-based.
The target in data set [9] is T3, hERG (KCNH2). Briefly: Inhibition of human ERG expressed in HEK293 cells assessed as inhibition of tail current at holding potential of -70 mV at 1 uM after 10 mins by whole-cell patch clamp method. It counts as cell-based. Particulars: HEK293 cells that express hERG.
Data set [10] addresses T3, hERG (KCNH2). Briefly: Inhibition of human ERG expressed in HEK293 cells assessed as inhibition of tail current at holding potential of -70 mV at 3.16 uM after 10 mins by whole-cell patch clamp method relative to control. It counts as cell-based. Particulars: HEK293 cells that express hERG.

T1 sequence (P23219 whole entry): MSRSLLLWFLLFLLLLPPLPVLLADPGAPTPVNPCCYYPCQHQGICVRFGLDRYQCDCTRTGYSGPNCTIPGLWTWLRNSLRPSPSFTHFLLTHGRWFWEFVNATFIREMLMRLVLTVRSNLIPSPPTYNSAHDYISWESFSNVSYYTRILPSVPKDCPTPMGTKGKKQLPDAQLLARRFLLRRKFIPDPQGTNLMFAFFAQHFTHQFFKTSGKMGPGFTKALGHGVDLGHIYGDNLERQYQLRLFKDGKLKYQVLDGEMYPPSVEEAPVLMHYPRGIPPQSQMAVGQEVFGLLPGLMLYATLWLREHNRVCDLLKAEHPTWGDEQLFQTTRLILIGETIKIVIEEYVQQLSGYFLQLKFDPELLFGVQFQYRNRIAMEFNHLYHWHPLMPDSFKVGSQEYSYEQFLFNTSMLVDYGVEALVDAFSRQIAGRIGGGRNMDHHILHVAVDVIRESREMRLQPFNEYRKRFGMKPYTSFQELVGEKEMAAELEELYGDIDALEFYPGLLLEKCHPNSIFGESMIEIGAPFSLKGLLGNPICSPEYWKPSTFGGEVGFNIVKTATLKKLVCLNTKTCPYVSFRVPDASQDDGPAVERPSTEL
T3 sequence (Q12809 whole entry): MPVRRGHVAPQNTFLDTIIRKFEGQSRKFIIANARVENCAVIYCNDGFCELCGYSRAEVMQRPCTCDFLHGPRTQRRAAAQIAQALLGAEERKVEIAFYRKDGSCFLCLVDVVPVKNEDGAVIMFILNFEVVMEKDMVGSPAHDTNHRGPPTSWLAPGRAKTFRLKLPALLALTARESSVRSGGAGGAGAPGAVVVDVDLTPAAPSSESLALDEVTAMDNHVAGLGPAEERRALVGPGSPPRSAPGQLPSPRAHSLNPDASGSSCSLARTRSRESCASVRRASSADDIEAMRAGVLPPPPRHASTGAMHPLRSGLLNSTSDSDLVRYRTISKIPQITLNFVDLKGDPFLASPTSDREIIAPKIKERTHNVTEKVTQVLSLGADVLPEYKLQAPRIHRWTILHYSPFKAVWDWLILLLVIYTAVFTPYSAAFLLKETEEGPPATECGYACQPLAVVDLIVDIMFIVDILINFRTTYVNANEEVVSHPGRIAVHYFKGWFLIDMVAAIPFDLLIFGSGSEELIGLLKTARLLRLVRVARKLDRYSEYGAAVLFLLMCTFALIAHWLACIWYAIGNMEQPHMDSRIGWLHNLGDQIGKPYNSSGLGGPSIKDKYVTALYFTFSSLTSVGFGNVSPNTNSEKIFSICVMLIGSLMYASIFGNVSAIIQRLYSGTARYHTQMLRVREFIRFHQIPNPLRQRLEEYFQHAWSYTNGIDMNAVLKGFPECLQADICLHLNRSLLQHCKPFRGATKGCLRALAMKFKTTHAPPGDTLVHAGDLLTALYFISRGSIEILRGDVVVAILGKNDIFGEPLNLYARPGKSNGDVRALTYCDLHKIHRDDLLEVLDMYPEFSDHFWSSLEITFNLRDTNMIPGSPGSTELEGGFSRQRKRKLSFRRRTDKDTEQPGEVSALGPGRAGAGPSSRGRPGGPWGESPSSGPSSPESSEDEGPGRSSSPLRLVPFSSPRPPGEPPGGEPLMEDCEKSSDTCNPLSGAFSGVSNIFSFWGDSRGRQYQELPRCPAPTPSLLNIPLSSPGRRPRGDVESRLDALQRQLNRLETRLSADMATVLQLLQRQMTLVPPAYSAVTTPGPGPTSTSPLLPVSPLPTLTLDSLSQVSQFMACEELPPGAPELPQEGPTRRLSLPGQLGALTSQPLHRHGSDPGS

For `CN=[S+](C)([O-])c1ccc(C2=C(c3ccccc3)C(=O)OC2)cc1` (stereo unspecified), the IC50 in data set [1] was determined as 0.0424 µM; in data set [2], 0.156 µM. Besides, in [3], the inhibition came to 10%.
Take `C[S+](=N)([O-])c1ccc(C2=C(c3ccccc3)C(=O)OC2)cc1` (stereo unspecified): the values for the inhibition at 10 min, 1 µM at hERG (KCNH2) [4] and on hERG (KCNH2) [9] were -0.1% and 1.7%, respectively. Moreover, in data set [3], the inhibition amounted to 26%. Besides, the inhibition at 10 min, 31.6 µM on hERG (KCNH2) [5] worked out at 27.6%. Further, the inhibition at 10 min, 3.16 µM on hERG (KCNH2) [6] was determined as 7%. Besides, on hERG (KCNH2) [7], the inhibition at 10 min, 10 µM turned out to be 20%. For the same molecule, the inhibition at 10 min, 100 µM on hERG (KCNH2) [8] worked out at 29.6%.
As to `CS(=O)(=O)c1ccc(C2=C(c3ccccc3)C(=O)OC2)cc1` [ROFECOXIB], the inhibition at 10 min, 31.6 µM at hERG (KCNH2) [5] was found to be 19.1%. The inhibition at 10 min, 3.16 µM was 8.3% at hERG (KCNH2) [6] and -10.2% on hERG (KCNH2) [10]. Besides, the inhibition at 10 min, 10 µM on hERG (KCNH2) [7] came out at 10.4%. For the same molecule, the inhibition at 10 min, 100 µM at hERG (KCNH2) [8] was 27.6%. Besides, the inhibition at 10 min, 1 µM at hERG (KCNH2) [9] is 6.8%.

For the origin of these results see ChEMBL document CHEMBL1811901, “Bioactive sulfoximines: syntheses and properties of Vioxx analogs” (Bioorg Med Chem Lett, 2011).
